Measurements reported in patent US8933046B2 (priority 2009, dated 2015).

Experiments:
[1] = tested on: influenza A/WSN/33 (H1N1) virus; assay type: cell-based
[2] = tested on: influenza A/Hamburg/04/2009 (H1N1) virus; assay type: cell-based
A549 cells = experiment: Influence of TG003 on cell viability (WST-1 assay); assay type: cell-based, human; conditions: TG003 50 μM
Procedure: FIG. 18|Influence of the chemical CLK1 inhibitor TG003 on cell viability. A549 cells were incubated with TG003 (50 μM, dissolved in DMSO), with DMSO or left untreated. Cell viability was evaluated at the indicated time points using the WST-1 assay, according to the manufacturer's instructions. Shown are the mean values from three replicates. Error bars indicate the standard deviation.
Determination of host cell viability upon siRNA transfection was performed using cell proliferation assay WST-1 (Roche, Mannheim, Germany). WST-1 reagent was added to the cells 48 h after siRNA transfection and incubated at 37° C. for 1.5 h. Absorbance was measured at 460 nm and at the reference wavelength 590 nm. Non-targeting siRNA Allstars and siPLK1 were used as a […].

[3] = tested on: viral M1 and M2 mRNA (influenza A/WSN/33); assay type: cell-based, influenza A virus
[4] = tested on: viral M1 and M2 protein (influenza A/WSN/33); assay type: cell-based, influenza A virus
[5] = tested on: vesicular stomatitis virus (VSV); assay type: cell-based; conditions: TG003 50 μM, A549 pretreated 24 h, VSV MOI 0.01, 24 h p.i.

WNT3A
normalised inhibition of infectious virus particles, siRNA1 [1]: 0.36
normalised inhibition of infectious virus particles, siRNA2 [1]: −0.16
normalised inhibition of infectious virus particles, siRNA3 [1]: 0.64
normalised inhibition of infectious virus particles, siRNA4 [1]: 0.81
normalised inhibition of infectious virus particles, siRNA1 [2]: 0.53
normalised inhibition of infectious virus particles, siRNA2 [2]: 0.4
normalised inhibition of infectious virus particles, siRNA3 [2]: 0.91
normalised inhibition of infectious virus particles, siRNA4 [2]: 1.1

CCN1/C(=C/C(C)=O)Sc2ccc(OC)cc21 [TG003]
toxic effects (cell viability, WST-1) (A549 cells): without exerting detectable toxic effects
levels of spliced M2 viral RNA [3]: reduced
unspliced M1 and NS1/NS2 viral RNA [3]: unaffected
M1 protein levels [4]: remained relatively constant
M2 protein levels [4]: drastically reduced
replication of vesicular stomatitis virus (VSV) [5]: only slightly reduced
